The source of these data is ChEMBL document CHEMBL3880415, “Spiro (Piperidine-4,2''-Pyrrolidine)-1-(3,5-Trifluoromethyl Phenyl) Methylcarboxamides As NK1 Tachikynin Receptor Antagonists” (2011).

A value given as a limit tells only on which side of the number the result lay.

The target in this experiment is Substance-P receptor (Homo sapiens, UniProt P25103). Put plainly: Antagonist at human NK1 receptor expressed in recombinant BacMam virus infected human U2OS cells assessed as inhibition of substance P-induced intracellular calcium release preincubated for 30 mins followed by substance P addition by Fluo-4 calcium dye-based FLIPR assay. The experiment is classed as functional, cell-based.
Sequence of Substance-P receptor (P25103 whole entry): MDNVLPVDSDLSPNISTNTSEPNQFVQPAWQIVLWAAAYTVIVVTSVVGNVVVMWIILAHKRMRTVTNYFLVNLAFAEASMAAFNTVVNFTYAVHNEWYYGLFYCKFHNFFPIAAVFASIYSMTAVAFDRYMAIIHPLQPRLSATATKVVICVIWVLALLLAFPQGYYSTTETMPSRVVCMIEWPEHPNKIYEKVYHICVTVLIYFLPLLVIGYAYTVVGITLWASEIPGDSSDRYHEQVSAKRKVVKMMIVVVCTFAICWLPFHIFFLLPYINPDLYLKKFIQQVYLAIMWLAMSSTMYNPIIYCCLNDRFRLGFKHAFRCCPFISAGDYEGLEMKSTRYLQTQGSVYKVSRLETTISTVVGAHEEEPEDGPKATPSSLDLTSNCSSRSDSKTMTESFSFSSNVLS

Consider `Cc1cc(F)ccc1[C@H]1C[C@@]2(CCC(C(N)=O)N2)CCN1C(=O)N(C)[C@H](C)c1cc(C(F)(F)F)cc(C(F)(F)F)c1` (stereo not given in full), for which the pKi (u2os) is listed as > 9.
Regarding `Cc1cc(F)ccc1[C@H]1C[C@]2(CC[C@H](C(N)=O)N2)CCN1C(=O)N(C)[C@H](C)c1cc(C(F)(F)F)cc(C(F)(F)F)c1`, the Ki was < 1 nM.
Regarding `Cc1cc(F)ccc1[C@H]1C[C@@]2(CCN1C(=O)N(C)[C@H](C)c1cc(C(F)(F)F)cc(C(F)(F)F)c1)CC(C(=O)O)CN2` (stereo not given in full), the Ki was < 1 nM.
The same measure, in the same setting: as for `Cc1cc(F)ccc1[C@H]1C[C@]2(CC[C@@H](C(N)=O)N2)CCN1C(=O)N(C)Cc1cc(C(F)(F)F)cc(C(F)(F)F)c1`, the figure is < 1 nM; as for `Cc1cc(F)ccc1[C@H]1C[C@]2(CC[C@H](C(N)=O)N2)CCN1C(=O)N(C)[C@@H](C)c1cc(C(F)(F)F)cc(C(F)(F)F)c1`, < 1 nM; as for `Cc1cc(F)ccc1[C@H]1C[C@@]2(CCN1C(=O)N(C)[C@H](C)c1cc(C(F)(F)F)cc(C(F)(F)F)c1)NCC[C@@H]2C(=O)O`, < 1 nM.
For `Cc1cc(F)ccc1[C@H]1C[C@]2(CCCN2)CCN1C(=O)N(C)[C@H](C)c1cc(C(F)(F)F)cc(C(F)(F)F)c1`, the Ki was < 1 nM.
Consider `Cc1cc(F)ccc1[C@H]1C[C@]2(CC[C@@H](C(N)=O)N2)CCN1C(=O)N(C)[C@H](C)c1cc(C(F)(F)F)cc(C(F)(F)F)c1`, for which the Ki is < 1 nM.
Turning to `Cc1cc(F)ccc1[C@H]1C[C@]2(CC[C@@H](C(N)=O)N2)CCN1C(=O)N(C)[C@@H](C)c1cc(C(F)(F)F)cc(C(F)(F)F)c1`, the Ki was < 1 nM.
For `Cc1cc(F)ccc1[C@H]1C[C@]2(CC[C@H](C(N)=O)N2)CCN1C(=O)N(C)Cc1cc(C(F)(F)F)cc(C(F)(F)F)c1`, the inhibition constant Ki is < 1 nM.
